Experiments:
[1] = test system: Colletotrichum gloeosporioides (Cg); experiment: Antifungal activity against Colletotrichum gloeosporioides (Cg) in wounded, infected avocados; format: in vivo; settings: Example 9; avocados; vapor of 3 mL, 72 hour exposure
Procedure: Example 7. The antifungal activity of AITC and DADS vapor against Colletotrichum gloeosporioides (Cg) was tested in avocados. All test pieces were wounded by removing the stem and infected by dispensing 1000 Cg spores suspended in 10 μL of water into the wound. The test groups consisted of avocados that were: untreated and uninfected; untreated and infected; treated by dipping in a solution of 0.1 g/L of prochloraz; exposed to the vapor of 3 mL of AITC disposed in a Petri dish; and exposed to the vapor of 3 mL of DADS disposed in a Petri dish. FIG. 9 quantifies the infection results. AITC vapor reduced the incidence of Cg mold by 97% compared to the untreated test group and 70% compared to the prochloraz treated test group. DADS vapor reduced the incidence of Cg mold by 60% compared to the untreated test group.
Example 8. The antifungal activity of a range of DADS vapor exposure times was tested against Cg in avocados. All test pieces were wounded by removing the stem and infected by dispensing 1000 Cg spores suspended in 10 μL of water into the wound. The test groups consisted of avocados that were: infected and untreated; and exposed to the vapor of 3 mL of DADS in a Petri dish for 24 hours, 48 hours, and 72 hours. FIG. 10 quantifies the infection results. Test group exposed to DADS vapor at all exposure times reduced the incidence of Cg mold compared to the untreated test group. A 24 hour DADS exposure reduced the incidence of Cg mold by 8%. A 48 hour DADS exposure reduced the incidence of Cg mold by 25%. A 72 hour DADS exposure reduced the incidence of Cg mold by 57%.
(§1) Example 9. The antifungal activity of a range of AITC and carvacrol vapor exposure times was tested against Cg in avocados. To measure the effect of the various treatments on ripening, durometer shore was taken after 7 days of incubation at ambient temperature and high humidity. All samples were wounded by removing the stem and infected by dispensing 1000 Cg spores suspended in 10 μL of water in the wound. The test groups consisted of avocados that were: infected and left untreated on the benchtop; infected and left untreated under a fume hood; exposed to the vapor of 3 mL of AITC in a Petri dish for 24 hours, 48 hours, and 72 hours; and exposed to the vapor of 3 mL of carvacrol in a Petri dish for 72 hours. FIG. 11 quantifies the infection results. […] All exposure times to AITC vapor reduced the incidence of Cg mold compared to the untreated samples. A 24 hour AITC exposure reduced the incidence of Cg mold by 90%. A 48 hour AITC exposure reduced the incidence of Cg mold by 97%. A 72 hour AITC exposure reduced the incidence of Cg mold by 83%.
(§2) Example 10. The antifungal activity of a range of AITC vapor exposure times were tested against Cg in avocados. To measure the effect of the various treatments on ripening, durometer shore was taken after 6 days of incubation at ambient temperature and high humidity. All samples were wounded by removing the stem and infected by dispensing 1000 Cg spores suspended in 10 μL of water in each wound. The test groups consisted of avocados that were: infected and left untreated on the benchtop; infected and left untreated in a fume hood; exposed to the vapor of 3 mL of AITC in a Petri dish for 24 hours, 48 hours, and 72 hours. FIG. 13 quantifies the infection results. […] All exposure times to AITC vapor reduced the incidence of Cg mold compared to the untreated samples.
Example 21. The antifungal activity of avocados exposed to AITC vapor and prochloraz was tested against Cg in avocados. To measure the effect of the various treatments on ripening, durometer shore was taken after 5 days of incubation at ambient temperature (about 20° C. to about 25° C.) and high humidity (about 88% relative humidity to about 93% relative humidity). All samples were wounded by removing the stem and infected by dispensing 1000 Cg spores suspended in 10 μL of water in the wound. […]

[2] = test system: Penicillium digitatum (Pd); experiment: Antifungal activity of vapor against Penicillium digitatum (Pd) in wounded, infected mandarins; format: in vivo; settings: after 6 days
avocados = experiment: Durometer shore (firmness, ripening) of treated avocados; format: in vivo, avocado; settings: Example 21; Cg-infected avocados; AITC 125 μL 30 minutes; prochloraz 0.1 g/L dip; after 5 days
Procedure: as §1, §2
Example 21. The antifungal activity of avocados exposed to AITC vapor and prochloraz was tested against Cg in avocados. To measure the effect of the various treatments on ripening, durometer shore was taken after 5 days of incubation at ambient temperature (about 20° C. to about 25° C.) and high humidity (about 88% relative humidity to about 93% relative humidity). All samples were wounded by removing the stem and infected by dispensing 1000 Cg spores suspended in 10 μL of water in the wound. Exposure to vapor was done by placing the avocados in an airtight container, dispensing AITC onto Whatman filter paper discs, suspending the discs in front of a battery-powered fan, closing the container and incubating the avocados for 30 minutes. After vapor exposure, the avocados were left at ambient temperature, high humidity, and assessed for Cg mold on day 5. Treatment groups consisted of avocados that were: exposed for 30 minutes to the vapor of 125 μL of AITC disposed on a filter paper disc; dipped in a solution of 0.1 g/L of prochloraz and placed to dry on a rack in front of a fan for 30 min; infected and left untreated; and uninfected and untreated. […] To prepare the 0.1 g/L of prochloraz, 10 mg of prochloraz was mixed with 10 mL of ethanol and 90 mL of water. […] A 24 hour AITC exposure reduced the incidence of Cg mold by 90%. […] The mean shore value for the untreated avocados was 28.8 (standard deviation (SD)=10.8). The mean shore value for the infected avocados was 47.3 (SD=11.8). The mean shore value of the positive control, prochloraz treated avocados was 44.3 (SD=14.7). The mean shore value of the AITC treated avocados was 61.1 (SD=10.5).
Durometer Shore Measurement: A Fruit Hardness Tester— HPE III Fff w/Sphere Ø 5.0 mm Test Anvil is used for the measurements. The Operating Procedure is as follows: • 1) At room temperature and 1 atm pressure, switch on the measuring device and press the hull or sleeve against the specimen so that the contact surface of the pressure plate rests on the fruit. […]

Cc1ccc(C(C)C)cc1O [carvacrol]
reduction of the incidence of Cg mold [1]: did not reduce the incidence of Cg mold

C=CCc1ccc(O)c(OC)c1 [eugenol]
performance against Pd versus the untreated samples ([2]; Example 19, mandarins, 62.5 μL AITC and/or 125 μL of all other compounds, 30 minutes): performed better than the untreated samples

C=CCOC(Cn1ccnc1)c1ccc(Cl)cc1Cl (stereo not shown) [imazalil, reference compound]
infected mandarins ([2]; Example 6, treated with 1 g/L, fruit of poor quality with latent infection): 83.3%

CCCN(CCOc1c(Cl)cc(Cl)cc1Cl)C(=O)n1ccnc1 [prochloraz, reference compound]
mean shore value (avocados): 44.3 (SD=14.7)

From patent US20230292776A1, “GAS PHASE TREATMENT OF PRODUCE” (priority 2022, published 2023)
